Laboratory results published in patent publication US6573279B1, “Isoquinoline derivatives or salts thereof” (priority 1999, dated 2003).
Counter-ions that a name gives are not always drawn.

Structure (SMILES) | melting point [°C]
COc1cc2c(cc1OC)CN(C(=O)C1CCCN(CCC(=O)Nc3ccc4ncsc4c3)C1)CC2 (centres unmarked) (as salt: HCl) [Example 14] | 183 to 185
COc1cc(NC(=O)CCN2CCCC(C(=O)N3CCc4cc(OC)c(OC)cc4C3)C2)ccc1C (centres unmarked) (as salt: HCl) [Example 15] | 171 to 173
COc1cc2c(cc1OC)CN(C(=O)[C@H]1CCCN(CCNC(=O)c3ccc(F)cc3)C1)CC2 (as salt: salt) (hydrate or solvate) [Example 50] | 187 to 191
O=C(CCN1CCCC(C(=O)N2CCc3ccccc3C2)C1)Nc1ccc2c(c1)OCO2 (centres unmarked) (as salt: salt) [Example 18] | 195 to 196
COc1ccc(NC(=O)CCN2CCCC(C(=O)N3CCc4cc(OC)c(OC)cc4C3)C2)cn1 (centres unmarked) (as salt: salt) [Example 21] | 182 to 185
COc1ccc(C(=O)NCCN2CCCC(C(=O)N3CCc4cc(OC)c(OC)cc4C3)C2)cc1C (centres unmarked) (as salt: salt) [Example 26] | 114 to 117
COc1ccc(C(=O)NCCN2CCCC(C(=O)N3CCc4cc(OC)c(OC)cc4C3)C2)cc1F (centres unmarked) (as salt: salt) [Example 27] | 113 to 116
CCOc1ccc(C(=O)NCCN2CCCC(C(=O)N3CCc4cc(OC)c(OC)cc4C3)C2)cc1 (centres unmarked) (as salt: salt) [Example 32] | 125 to 127
COc1cc2c(cc1OC)CN(C(=O)C1CCCN(CCNC(=O)c3ccc(F)cc3)C1)CC2 (centres unmarked) (as salt: salt) [Example 40] | 137 to 141
COc1cc(OC)cc(C(=O)NCCN2CCCC(C(=O)N3CCc4cc(OC)c(OC)cc4C3)C2)c1 (centres unmarked) (as salt: salt) [Example 42] | 166 to 167
COc1cc2c(cc1OC)CN(C(=O)C1CCCN(CCNC(=O)c3ccc(F)cc3F)C1)CC2 (centres unmarked) (as salt: salt) [Example 43] | 178 to 180
COc1cc2c(cc1OC)CN(C(=O)C1CCCN(CCNC(=O)c3ccc(F)c(C(F)(F)F)c3)C1)CC2 (centres unmarked) (as salt: salt) [Example 44] | 186 to 188
COc1cc2c(cc1OC)CN(C(=O)C1CCCN(CCNC(=O)c3ccc(F)c(Cl)c3)C1)CC2 (centres unmarked) (as salt: salt) [Example 45] | 111 to 112
COc1cc2c(cc1OC)C(C)(C)CN(C(=O)C1CCCN(CCNC(=O)c3ccc4c(c3)OCO4)C1)C2 (centres unmarked) (as salt: salt) [Example 51] | 138 to 140
COc1cc2c(cc1OC)CN(C(=O)[C@@H]1CCCN(CCC(=O)Nc3ccc4c(c3)OCO4)C1)CC2 (as salt: tartrate) [Example 5, (−)-3-[(R)-3-(6,7-dimethoxy-1,2,3,4-tetrahydroisoquinoline-2-carbonyl)piperidino]-N-(3,4-methylenedioxyphenyl)propanamide L-tartrate] | 174 to 175
COc1ccc(NC(=O)CCN2CCCC(C(=O)N3CCc4cc(OC)c(OC)cc4C3)C2)cc1OC (racemic) (as salt: HCl) [Example 1, (±)-3-[3-(6,7-dimethoxy-1,2,3,4-tetrahydroisoquinoline-2-carbonyl)piperidino]-N-(3,4-dimethoxyphenyl)propanamide hydrochloride] | 154 to 156
COc1ccc(NC(=O)CCN2CCCC(C(=O)N3CCc4cc(OC)c(OC)cc4C3)C2)cc1 (racemic) (as salt: HCl) [Example 4, (±)-3-[3-(6,7-dimethoxy-1,2,3,4-tetrahydroisoquinoline-2-carbonyl)piperidino]-N-(4-methoxyphenyl)propanamide hydrochloride] | 211 to 213

The next lines start with the values.

melting point [°C] | Structure (SMILES)
181 to 185 | COc1cc2c(cc1OC)CN(C(=O)C1CCCN(CCC(=O)Nc3cccc(Cl)c3)C1)CC2 (centres unmarked) (as salt: HCl) [Example 12]
166 to 168 | COc1cc2c(cc1OC)CN(C(=O)C1CCCN(CCC(=O)Nc3ccc(OC)c(C(F)(F)F)c3)C1)CC2 (centres unmarked) (as salt: HCl) [Example 13]
183 to 185 | COc1cc2c(cc1OC)CN(C(=O)C1CCCN(CCC(=O)Nc3ccc(C)c(F)c3)C1)CC2 (centres unmarked) (as salt: HCl) [Example 16]
203 to 206 | COc1cc2c(cc1OC)CN(C(=O)C1CCN(CCC(=O)Nc3ccc4c(c3)OCO4)CC1)CC2 (as salt: HCl) [Example 19]
225 to 228 | COc1cc2c(cc1OC)C(C)(C)CN(C(=O)C1CCCN(CCC(=O)Nc3ccc4c(c3)OCO4)C1)C2 (centres unmarked) (as salt: HCl) [Example 25]
197 to 199 | COc1cc2c(cc1OC)CN(C(=O)[C@@H]1CCCN(CCNC(=O)c3ccc(F)cc3)C1)CC2 (as salt: salt) (hydrate or solvate) [Example 49]
179 to 180 | COc1ccc2c(c1)CCN(C(=O)C1CCCN(CCC(=O)Nc3ccc4c(c3)OCO4)C1)C2 (centres unmarked) (as salt: salt) [Example 17]
180 to 181 | COc1cc2c(cc1OC)CN(C(=O)C1CCCN(CCC(=O)Nc3ccc4c(c3)OCO4)C1)CCC2 (centres unmarked) (as salt: salt) [Example 20]
125 to 128 | COc1cc(C(=O)NCCN2CCCC(C(=O)N3CCc4cc(OC)c(OC)cc4C3)C2)ccc1C (centres unmarked) (as salt: salt) [Example 28]
120 to 124 | COc1cc2c(cc1OC)CN(C(=O)C1CCCN(CCNC(=O)c3ccc(F)c(F)c3)C1)CC2 (centres unmarked) (as salt: salt) [Example 29]
126 to 130 | COc1cc2c(cc1OC)CN(C(=O)C1CCCN(CCNC(=O)c3ccc4c(c3)OCCO4)C1)CC2 (centres unmarked) (as salt: salt) [Example 30]
113 to 116 | COc1cc2c(cc1OC)CN(C(=O)C1CCCN(CCNC(=O)c3ccc4c(c3)OC(F)(F)O4)C1)CC2 (centres unmarked) (as salt: salt) [Example 31]
116 to 119 | COc1cc2c(cc1OC)CN(C(=O)C1CCCN(CCNC(=O)c3ccc(OC(C)C)cc3)C1)CC2 (centres unmarked) (as salt: salt) [Example 33]
130 to 138 | COc1cc2c(cc1OC)CN(C(=O)C1CCCN(CCNC(=O)c3ccc4c(c3)OCC(=O)N4C)C1)CC2 (centres unmarked) (as salt: salt) [Example 34]
124 to 133 | COc1cc2c(cc1OC)CN(C(=O)C1CCCN(CCNC(=O)c3ccc4c(c3)N(C)C(=O)CO4)C1)CC2 (centres unmarked) (as salt: salt) [Example 35]
133 to 136 | COc1cc2c(cc1OC)CN(C(=O)C1CCCN(CCNC(=O)c3cccc(Br)c3)C1)CC2 (centres unmarked) (as salt: salt) [Example 41]
175 to 177 | COc1cc2c(cc1OC)CN(C(=O)[C@H]1CCCN(CCC(=O)Nc3ccc4c(c3)OCO4)C1)CC2 (as salt: tartrate) [Example 6, (+)-3-[(S)-3-(6,7-dimethoxy-1,2,3,4-tetrahydroisoquinoline-2-carbonyl)piperidino]-N-(3,4-methylenedioxyphenyl)propanamide D-tartrate]
226 to 228 | COc1cc2c(cc1OC)CN(C(=O)C1CCCN(CCC(=O)Nc3ccc4c(c3)OCO4)C1)CC2 (racemic) (as salt: HCl) [Example 2, (±)-3-[3-(6,7-dimethoxy-1,2,3,4-tetrahydroisoquinoline-2-carbonyl)piperidino]-N-(3,4-methylenedioxyphenyl)propanamide hydrochloride]
